Reference: patent US4613587A, “Ophthalmic preparations” (Yeda Research and Development Co. Ltd., priority 1983, dated 1986)
pKi: −log10 of the molar value. Values joined by “and” are separate entries in the source; they are usually repeats but may differ in a detail not shown here. Equal entries are not always repeated. Where two headings read alike, the source gives them in different places.

Tests used:
[1] = target: elastase of P. aeruginosa (Pseudomonas aeruginosa, UniProt P14756); conditions: background; known inhibitors effective at rather large concentrations; cited from earlier work
elastase of P. aeruginosa, sequence (P14756 198-498): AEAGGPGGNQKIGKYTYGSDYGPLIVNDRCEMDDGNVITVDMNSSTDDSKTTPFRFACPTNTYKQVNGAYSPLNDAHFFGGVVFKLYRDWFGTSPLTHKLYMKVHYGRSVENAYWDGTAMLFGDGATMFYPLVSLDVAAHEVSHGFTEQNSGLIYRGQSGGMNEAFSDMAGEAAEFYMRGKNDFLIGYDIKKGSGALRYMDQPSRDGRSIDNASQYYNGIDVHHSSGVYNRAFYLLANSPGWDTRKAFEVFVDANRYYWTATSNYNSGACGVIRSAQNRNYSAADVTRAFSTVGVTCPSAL

Pseudomonas elastase = Pseudomonas elastase (Pseudomonas aeruginosa, UniProt P14756); assay: biochemical
Pseudomonas elastase, sequence (P14756 198-498): as above
Description: Measurements were performed at 25° C. The reaction solutions (2.5 ml) ocnsisted of 0.1-0.2 mM substrate in 0.1M NaCl-0.05M Tris. HCl-0.01M CaCl2, pH 7.5; all were demetallized. The hydrolysis of substrate was first order and rates were determined from plots of (At -A) versus t (At and A represent absorbance at time t and after completion of the reaction, respectively). Inhibition constants (Ki) were derived from plots of ko /ki versus inhibitor concentration (ko and ki are the observed rate constants in absence and presence of inhibitors, respectively).
The inhibition characteristics of […] for Pseudomonas elastase, using furylacryloyl-Gly-Leu-Ala as the substrate, was determined. […] The Ki value for HS-Ac-Phe-Leu was 0.2 μM.

[2] = target: T1, Pseudomonas aeruginosa elastase (Pseudomonas aeruginosa, UniProt P14756); assay: Protection of the cornea: pure elastase injected into rabbit cornea together with inhibitor; type: in vivo; conditions: rabbit eye, about 1 μg elastase injected with 0.2 μmole (70 μg) inhibitor
T1 sequence (P14756 198-498): as above
Description: 1. When about 1 μg of the pure elastase is injected into the cornea of a rabbit eye, the cornea "dissolves", swells and perforates within about an hour and a half from the time of the injection of the elastase. When the same amount of enzyme is injected in the presence of 0.2μ mole (70 μg) of the inhibitor mercaptoacetyl-L-phenylalanyl-L leucine, the dissolution effect is postponed to about 9 hours from the injection of the enzyme. […] The perforation of the cornea is prevented.

[3] = target: T1, Pseudomonas aeruginosa elastase; assay: Protection of the cornea: topical inhibitor drops before and after elastase injection into rabbit cornea; type: in vivo; conditions: 10 mM solution
Text: 2. […] This series of experiments proves that the mercaptoacetyl dipeptide is an effective agent preventing damage to the eye caused by Pseudomonas aeruginosa elastase.

Pseudomonas aeruginosa [4] = assay: Experimental model of Pseudomonas keratitis in rabbit eyes, antibiotic plus inhibitor versus antibiotic alone; type: in vivo; conditions: 10 mM inhibitor drops combined with 0.3% gentamicin sulfate
Description: 3. The efficacy of combined treatment with antibiotics and the inhibitor HSAc-Phe-Leu was compared with that of the antibiotics alone using an experimental model of Pseudomonas keratitis in rabbit eyes. The inhibitor at a concentration of 10 mM was given, one drop at a time, every 15 min. for 1 hour after infection with the bacteria, and then hourly for additional 44 hours. The antibiotic (0.3% gentamicin sulfate) was applied every 2 hours, starting 16 hours after infection.

Pseudomonas aeruginosa [5] = assay: Rabbit eyes infected with P. aeruginosa, topical treatment (Expt. A and B), clinical scores and corneal melting; type: in vivo; conditions: for Development of extensive corneal melting (%) / Development of extensive corneal melting, No. of eyes with melting/No. of eyes in group: extensive: 30% of corneal area affected; for Development of corneal melting (%) / Development of corneal melting, No. of eyes with melting/No. of eyes in group: rabbit eyes; for Clinical Scores: individual rabbit eyes, scoring of Table 3, maximum 10
Description: Further experiments were carried out. The schedule of topical treatment is set out in Table 2. The criteria applied to the results are set out in Table 3. […]

## O=C(O)CN(CCN(CC(=O)O)CC(=O)O)CC(=O)O [EDTA]
[1]
  inhibition of the elastase: inhibited

## CC(C)C[C@H](NC(=O)CS)C(=O)N[C@H](Cc1ccccc1)C(=O)O [HS-Ac-Leu-D-Phe]
Pseudomonas elastase; 25° C., pH 7.5, substrate furylacryloyl-Gly-Leu-Ala, read-out: Ki
  pKi: 4.47

## CC(C)C[C@H](NC(=O)CS)C(=O)N[C@@H](Cc1ccccc1)C(=O)O [HS-Ac-Leu-Phe, 2-mercaptoacetyl-L-leucyl-L-phenylalanine]
Pseudomonas elastase
  pKi: 5.82

## CC(C)C[C@H](NC(=O)[C@H](Cc1ccccc1)NC(=O)CS)C(=O)O [HS-Ac-Phe-Leu, mercaptoacetyl-L-phenylalanyl-L-leucine]
Pseudomonas elastase
  pKi: 6.70
[2]
  perforation of the cornea: prevented
[2]; after about 9 hours
  damage caused, part of the cornea affected: ≤ 10%
[2]; without inhibitor about an hour and a half
  time from injection of the enzyme to which the dissolution effect of the cornea is postponed: about 9 hours
[3]; topical drops before and after enzyme injection
  dissolution of the cornea: no "dissolution" of the cornea takes place at all
[3]; topical drops, remains for many hours after cessation of treatment
  appearance of the eye: entirely normal
Pseudomonas aeruginosa [4]
  severity of the damage caused to the eyes, versus antibiotic alone: significantly lower

## c1cnc2c(c1)ccc1cccnc12 [O-phenanthroline]
[1]
  inhibition of the elastase: inhibited

## gentamicin sulfate
Pseudomonas aeruginosa [5]; 28 h after infection
  Development of extensive corneal melting (%): 27%
  Development of extensive corneal melting, No. of eyes with melting/No. of eyes in group: 4/15
  Development of corneal melting (%): 73%
  Development of corneal melting, No. of eyes with melting/No. of eyes in group: 11/15
Pseudomonas aeruginosa [5]; 28 hours after infection, Expt. A
  Clinical Scores: 7 and 4 and 3 and 6 and 1
Pseudomonas aeruginosa [5]; 28 hours after infection, Expt. B
  Clinical Scores: 3 and 2 and 1 and 6
Pseudomonas aeruginosa [5]; 48 h after infection
  Development of extensive corneal melting (%): 60%
  Development of extensive corneal melting, No. of eyes with melting/No. of eyes in group: 9/15
  Development of corneal melting (%): 93%
  Development of corneal melting, No. of eyes with melting/No. of eyes in group: 14/15
Pseudomonas aeruginosa [5]; 48 hours after infection, Expt. A
  Clinical Scores: 7 and 10 and 6 and 4 and 3
Pseudomonas aeruginosa [5]; 48 hours after infection, Expt. B
  Clinical Scores: 6 and 7 and 5 and 4
